Measured values published in patent publication US11618746B2, “Inhibitors of APOL1 and methods of using same” (Vertex Pharmaceuticals Incorporated, priority 2018, dated 2023).

Biological target: T1, APOL1 G1 Protein (Homo sapiens, UniProt O14791, I384M/S342G)
T1 sequence (O14791 28-398 S342G/I384M): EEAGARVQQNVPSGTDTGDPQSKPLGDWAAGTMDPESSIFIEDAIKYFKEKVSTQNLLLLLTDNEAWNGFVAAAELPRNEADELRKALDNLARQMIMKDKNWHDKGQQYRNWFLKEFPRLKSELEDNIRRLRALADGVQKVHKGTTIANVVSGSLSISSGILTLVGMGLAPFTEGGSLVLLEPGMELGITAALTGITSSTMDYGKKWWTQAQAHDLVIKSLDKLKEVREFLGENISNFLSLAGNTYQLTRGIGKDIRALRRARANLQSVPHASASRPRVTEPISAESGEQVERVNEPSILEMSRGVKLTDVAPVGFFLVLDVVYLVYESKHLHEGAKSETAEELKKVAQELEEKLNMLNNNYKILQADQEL
Assay: Trypanosoma brucei brucei lysis assay using APOL1 recombinant protein (AlamarBlue viability readout)
Assay type: cell-based
Conditions: Trypanosoma brucei brucei (Lister 427 VSG 221 bloodstream form) lysis by 0.05 μg/mL recombinant APOL1 G1, 16 hrs
From the text: Trypanosoma brucei brucei is a blood stream parasite to which human, gorillas and baboon are immune due to the presence of the APOL1 protein in their HDL particles. The protein is uptaken by the parasite via the TbHpHb receptor located in its flagellar pocket and is bonded by the Hpr protein contained in the HDL particles which triggers the receptor endocytosis by the parasite.
Following endocytosis, the formed vesicle containing the HDL particle matures from early to late endosome, and subsequently to lysosome. The concomitant pH change in the lumen of the vesicle triggers the insertion of the APOL1 protein into the membrane of the late endosome/lysosome and hereby triggers lysosomal membrane premeabilisation and as a further downstream event, trypanosome lysis. Trypanosoma brucei brucei is sensitive to lysis by all three APOL1 variants (G0, G1, and G2).
The Trypanosoma brucei brucei lysis assay is a lysis assay of the parasite using recombinant APOL1 protein variant followed by a fluorescent detection method of viability by the addition of AlamarBlue reagent to the assay well, a general metabolic redox indicator (AlamarBlue assay).
Briefly, the AlamarBlue active compound, the resazurin, a blue, water soluble, non-toxic and cell permeable molecule, which can be followed by absorbance, is reduced by various metabolic pathways into resorufin, a red compound which can be followed by either absorbance or fluorescence. The assay allows the calculation of the percent viability (percent of living Trypanosomes remaining in each well) at the end of a lysis relative to the untreated condition by interpolation of fluorescent values (FLU) on a standard curve with a known amount of seeded trypanosome/well.
Trypanosoma brucei brucei (ATCC, Cat. No. PRA-382) • Lister 427 VSG 221 bloodstream form.
Thaw/Expansion Media (ATCC Medium 2834 Modified HMI-9 Medium)
Equipment • E1-Clip Tip pipette 12 channel adjustable 2-125 μL, Cat. No. 4672070BT • ThermoFisher MultiDrop 384, Cat. No. 5840300 • Multidrop • Agilent Bravo, Cat. No. G5409A • Bravo • SpectraMax M5
Trypanosoma brucei brucei Culture
Step 2, Day 4 • Centrifuge at 800×g for 5 minutes at room temperature. • Resuspend in 1 mL media. • Make a 1:25 fold dilution (10 μL/240 μL media). • Count on a hemocytometer (after adding parasites). • Let sit for 1-2 minutes for the parasites to settle. • Count should be approximately 100 viable motile parasites/16 grid or approximately 25×10^6 parasites/flask. • Passage the parasites by adding 1×10^6 parasites/T75 flask in 20 mL media. • Passage the parasites by adding 2.33×10^6 parasites/T175 flask in 46.6 mL media. • For every T75 flask should make enough for approximately 1.5×384 well assay plates. • For every T175 flask should make enough for approximately 3.8×384 well assay plates.
Step 3. Day 6 • Centrifuge at 800×g for 5 minutes. • Resuspend in 3 mL assay media (No phenol red, no FBS) per 75 starting flask. • Resuspend in 7 mL assay media (No phenol red, no FBS) per 175 flask • Make a 1:25 fold dilution. • Count by hemocytometer. • Every T75 flask set up should have approximately 75×10^6 parasites/flask (verify doubling time=8.7 hrs 1 hr). • Every T175 flask set up should have approximately 175×10^6 parasites/flask (verify doubling time=8.7 hrs±1 hr). • Require 46×10^6 parasites per 384 well plate (at 120,000 parasites per well).
Step 2, Day 2 • Centrifuge at 800×g for 5 minutes at room temperature. • Resuspend in 1 mL media. • Make a 1:25 fold dilution (10 L/240 μL media). • Let sit for 1-2 minutes for the parasites to settle. • Count should be approximately 100 viable motile parasites/16 grid or approximately 8×10^6 parasites per flask. • Passage the parasites by adding 1.25×10^6 parasites per T75 flask in 20 mL media. • For every T75 flask set up should have approximately 1.5×384 well assay plates. • For every T175 flask setup should have approximately 3.8×384 well assay plates. […]

Row | SMILES | IC50
1 | O=C(CCc1c(-c2ccc(F)cc2)[nH]c2c(F)cc(F)cc12)N[C@@H]1C(=O)NC[C@@H]1O [Compound 1, 3-[5,7-difluoro-2-(4-fluorophenyl)-1H-indol-3-yl]-N-[(3S,4S)-4-hydroxy-2-oxo-pyrrolidin-3-yl]propanamide] | < 250 nM
2 | [2H]C([2H])(C(=O)N[C@@H]1C(=O)NC[C@H]1O)C([2H])([2H])c1c(-c2ccc(F)cc2)[nH]c2c(F)cc(F)cc12 [Compound 88, 2,2,3,3-tetradeutero-3-[5,7-difluoro-2-(4-fluorophenyl)-1H-indol-3-yl]-N-[(3S,4R)-4-hydroxy-2-oxo-pyrrolidin-3-yl]propanamide] | < 250 nM
3 | O=C(CCc1c(-c2ccc(F)cc2)[nH]c2c(F)cc(F)cc12)N[C@@H]1C(=O)NC[C@H]1O [Compound 2, 3-[5,7-difluoro-2-(4-fluorophenyl)-1H-indol-3-yl]-N-[(3S,4R)-4-hydroxy-2-oxo-pyrrolidin-3-yl]propanamide] | < 250 nM
4 | [2H]C(C(=O)N[C@@H]1C(=O)NC[C@H]1O)C([2H])c1c(-c2ccc(F)cc2)[nH]c2c(F)cc(F)cc12 (stereo partly drawn) [Compound 89, 2,3-dideuterio-3-[5,7-difluoro-2-(4-fluorophenyl)-1H-indol-3-yl]-N-[(3S,4R)-4-hydroxy-2-oxo-pyrrolidin-3-yl]propanamide] | < 250 nM
